Reference: patent US4294833A, “Substituted 4-hydroxy-isophthalic acid picolylamides having a pharmaceutical activity in thromboembolic disorders” (Societa Italo-Britannica, priority 1977, dated 1981)

Key:
[1] = test system: platelet aggregation induced by thrombin; experiment: Platelet aggregation inhibitory activity in vivo (Born aggregometer), thrombin-induced; parameters: species or system New Zealand rabbits; conditions: Oryctolagus cuniculus, Platelet, ip, dose for 50% inhibition of thrombin-induced aggregation curve; rabbits, intraperitoneal, blood 2, 4 and 6 hours after injection; read-out: platelet antiaggregant activity (AAP), DI50, Thrombin
Experimental: (§1) Determination of the platelet aggregation inhibitory activity in vivo
(§2) The activity of the above described compounds as platelet antiaggregant was tested in vivo on rabbits, by the Born aggregometer. The inhibition of the aggregation curve induced by ADP and thrombin was assessed with different drug concentrations according to the platelet reactivity. New Zealand rabbits which had been held fasting for 12 hours with water ad libitum, were anaesthetized with Nembutal in a dose of 35 mg/kg intramuscolarly. The blood was withdrawn from the carotidal arthery, before (control) and 2, 4, and 6 hours after the intraperitoneal injection of the compounds under examination (at the dose indicated below). The blood samples were taken up in a 3.8% aqueous solution of sodium citrate in a ratio 10:1 and thereupon centrifuged at 1500 r.p.m. for 10 minutes, for obtaining a PRP (platelet rich plasma). A portion of such a plasma was thereupon centrifuged at 8000 r.p.m. for 10 minutes, for obtaining a PPP (platelet lean plasma) which was used for zeroing the measuring apparatus.
(§3) From the results of said experiments, there was determined the dose of each product in mg/kg body weight able to induce a 50% inhibition of the aggregation curve (DI50) after treatment, referred to the curve obtained by the same control plasma before treatment.
(§4) In tables I and II are further indicated for each compound the method of preparation; the melting point PF in °C; the platelet antiaggregant activity (AAP) expressed in terms of DI50 in mg/kg, referred to ADP and thrombin respectively; the antithrombin activity (AT) in %; the anticoagulant activity (AC) in %; the fibrinolytic activity (FL) in %; the acute toxicity (LD50) in mice, intraperitoneally, in mg/kg, as previously defined.

[2] = test system: platelet aggregation induced by ADP; experiment: Platelet aggregation inhibitory activity in vivo (Born aggregometer), ADP-induced; parameters: species or system New Zealand rabbits; conditions: Oryctolagus cuniculus, Platelet, ip, dose for 50% inhibition of ADP-induced aggregation curve; rabbits, intraperitoneal, blood 2, 4 and 6 hours after injection; read-out: platelet antiaggregant activity (AAP), DI50, ADP
Experimental: as §1, §2, §3, §4

[3] = Acute toxicity, intraperitoneal; conditions: mouse, in vivo, ip, male Swiss mice, intraperitoneal, 7 days observation; preliminary, by graphic interpolation; read-out: acute toxicity (LD50 / DL50)
Experimental: The acute toxicity limit was determined intraperitoneally on male Swiss mice, weighing 20±2 g, held fasting for 18 hours with water ad libitum.
The animals were maintained under observation for 7 days of treatment, by examining the general symptomatology and noting the death sequency. The preliminary DL50 in mg/kg body weight was calculated by graphic interpolation of the results as obtained.
as §4

[4] = test system: CaCl2-induced plasma coagulation; experiment: Anticoagulant activity on PRP, Hartert's thromboelastograph; assay type: in vivo, New Zealand rabbits; conditions: Oryctolagus cuniculus, ip, percent increase of total time for coagulum formation (r+k) vs before treatment; 25 mg/kg intraperitoneal, rabbits; read-out: anticoagulant activity (AC)
Experimental: Determination of the anticoagulant activity
The anticoagulant activity was also assessed on PRP of animals treated as described in the preceding methods, by using again Hartert's thromboelastograph method.
The plasma coagulation was induced by adding to 0.25 ml PRP a 1.29% solution of CaCl2.
The anticoagulant effect was determined as a percent increase of the total time for the coagulum formation (the index r+k can be obtained from the thromboelastograph diagram) in a plasma after treatment, referred to the same index obtained before the treatment (control). Again the dose level was 25 mg/kg for each compound under examination, intraperitoneally.
as §4

blood coagulum = experiment: Fibrinolytic activity, Fearnley method (lysis of blood coagulum in toto); assay type: in vivo; conditions: Oryctolagus cuniculus, ip, 0.5 h, percent decrease of coagulum weight after 30 minutes at 37° C.; 25 mg/kg intraperitoneal, rabbits; read-out: fibrinolytic activity (FL)
Experimental: Determination of the fibrinolytic activity
The determination of the fibrinolytic activity was made following the Fearnley method for the lysis of the blood coagulum in toto.
0.2 ml of blood were withdrawn from the marginal vein of the ear of rabbits treated in the same way as the previously described tests, before and after an intraperitoneal injection of the compounds under test at a dose level of 25 mg/kg for each compound.
The blood samples were placed in test tubes containing 1.7 ml of phosphate buffer at pH 7.4 and 0.1 ml of thrombin (Roche Topostasin ® per os) at 50 units NIH/ml, and maintained in an ice bath. The test tubes were maintained at said temperature for 30 minutes and thereupon were transferred to a temperature controlled water bath at 37° C.
The fibrinolytic activity was determined as a percent decrease of the coagulum weight, measured after incubation for 30 minutes at 37° C.
as §4

[5] = test system: thrombin-induced coagulation of platelet rich plasma; experiment: Antithrombin activity on PRP, Hartert's thromboelastograph; assay type: in vivo, New Zealand rabbits; conditions: Oryctolagus cuniculus, Platelet, ip, percent decrease of index ma/[r+k] vs before treatment; 20 mg/kg intraperitoneal, rabbits
Experimental: Determination of the antithrombin activity
The antithrombin activity on the PRP (platelet rich plasma) obtained following the above described method was assessed by Hartert's thromboelastograph (Hellige model). The coagulation was induced by adding to 0.25 ml of plasma 0.06 ml of a thrombin solution (Roche Topostasin® per os) at 60 units*, pH 7.4**. The antithrombin activity was assessed in terms of a percent decrease of the index (ma/[r+k]) which was calculated from the thromboelastograph diagram, wherein r is the reaction time, k is the speed of the coagulum formation and ma is the maximum spread of the tong, after an intraperitoneal treatment with a dose of 20 mg/kg of each compound under examination, referred to the same index obtained before the treatment (control).
as §4

SMILES | ED50 [1] [mg/kg] | ED50 [2] [mg/kg] | LD50 at 168 h [3] [mg/kg] | change in vivo at 25 mg/kg [4] [%] | fibrinolytic activity (percent decrease of coagulum weight) at 25 mg/kg (blood coagulum) [%] | inhibition in vivo at 20 mg/kg [5] [%]
COc1c(Cl)cc(C(=O)NCc2cccnc2)cc1C(=O)NCc1cccnc1 [Example 23] | 46.9 | 63.4 | 425 | 12.2 | 16.8 | 22.5
O=C(NCc1ccncc1)c1ccc(O)c(C(=O)NCc2ccncc2)c1 [Example 57] | 19.2 | 26 | 661 | 19 | 32.1 | 38.4
C=CCOc1c(Cl)cc(C(=O)NCc2cccnc2)cc1C(=O)NCc1cccnc1 [Example 25] | 35.4 | 59.5 | 184 | 15.5 | 25.9 | 40.6
CC(C)CCOc1ccc(C(=O)NCc2ccncc2)cc1C(=O)NCc1ccncc1 [Example 63] | 28.4 | 42.9 | 185 | 22.6 | 23.2 | 29.2
COc1cc(C(=O)NCc2cccnc2)cc(C(=O)NCc2cccnc2)c1OC1CCCC1 [Example 20] | 21.4 | 35.6 | 375 | 12.9 | 27.9 | 32.6
CCOc1ccc(C(=O)N(CCC(C)C)Cc2cccnc2)cc1C(=O)N(CCC(C)C)Cc1cccnc1 [Example 45] | 22.3 | 30.6 | 460 | 16.3 | 29.9 | 35.8
C=CCOc1c(C(=O)NCc2cccnc2)cc(C(=O)NCc2cccnc2)cc1[N+](=O)[O-] [Example 36] | 27.1 | 36.3 | 267 | 11.9 | 19.1 | 23
CC(C)Oc1ccc(C(=O)NCc2cccnc2)cc1C(=O)NCc1cccnc1 [Example 12] | 30.9 | 50.2 | 615 | 12.7 | 20.2 | 25.6
CCN(Cc1cccnc1)C(=O)c1ccc(OC)c(C(=O)N(CC)Cc2cccnc2)c1 [Example 40] | 42.3 | 60.2 | 605 | 13.4 | 20.6 | 28.9
C=CCOc1ccc(C(=O)NCc2ccncc2)cc1C(=O)NCc1ccncc1 [Example 61] | 19.5 | 28.6 | 392 | 15.6 | 45 | 52.8
CCC(C)Oc1ccc(C(=O)NCc2cccnc2)cc1C(=O)NCc1cccnc1 (stereo not drawn) [Example 14] | 29.7 | 46.4 | 227 | 22.3 | 22.5 | 38.1
CC(C)COc1ccc(C(=O)NCc2cccnc2)cc1C(=O)NCc1cccnc1 [Example 15] | 33 | 52.6 | 471 | 17.6 | 19.8 | 25.5
C=CCCCCOc1ccc(C(=O)NCc2cccnc2)cc1C(=O)NCc1cccnc1 [Example 10] | 21.1 | 29.4 | 194 | 12.6 | 43.9 | 52.6
C=CC(C)Oc1ccc(C(=O)NCc2ccncc2)cc1C(=O)NCc1ccncc1 (stereo not drawn) [Example 64] | 24 | 35.1 | 360 | 19.2 | 33.6 | 45.9
CC(C)=COc1ccc(C(=O)NCc2cccnc2)cc1C(=O)NCc1cccnc1 [Example 55] | 20.5 | 28.2 | 338 | 19.2 | 29.5 | 32.5
COc1ccc(C(=O)N(Cc2cccnc2)C(C)C)cc1C(=O)N(Cc1cccnc1)C(C)C [Example 43] | 20.6 | 27.3 | 478 | 20.7 | 33.6 | 39.4
CC(C)=COc1ccc(C(=O)NCc2ccncc2)cc1C(=O)NCc1ccncc1 [Example 65] | 24.5 | 36.7 | 240 | 23.8 | 26.5 | 34.2
C=C(C)COc1ccc(C(=O)N(CCC)Cc2ccncc2)cc1C(=O)N(CCC)Cc1ccncc1 [Example 70] | 20.8 | 30.6 | 360 | 18.9 | 39.3 | 48.2
CC=CCOc1ccc(C(=O)N(C)Cc2ccncc2)cc1C(=O)N(C)Cc1ccncc1 [Example 69] | 19.3 | 26.1 | 210 | 14.2 | 41.6 | 48.7
CC(C)CCOc1ccc(C(=O)NCc2cccnc2)cc1C(=O)NCc1cccnc1 [Example 13] | 27.1 | 48.3 | 173 | 24.5 | 21.9 | 28.5
CC(C)(C)Oc1ccc(C(=O)NCc2cccnc2)cc1C(=O)NCc1cccnc1 [Example 16] | 30.3 | 45.2 | 325 | 13.6 | 21.9 | 27.6
C=CCOc1c(Cl)cc(C(=O)NCc2ccncc2)cc1C(=O)NCc1ccncc1 [Example 67] | 34.2 | 55.6 | 187 | 14.6 | 27.1 | 39.8
